Measurements: ChEMBL document CHEMBL4507293 (2021)
The source made the active and inactive calls.

Assays:
[1] = target: Citron Rho-interacting kinase (Homo sapiens) (UniProt O14578); settings: Compound concentration 100.0 nM
[2] = target: Phosphatidylinositol 5-phosphate 4-kinase type-2 gamma (Homo sapiens) (UniProt Q8TBX8); settings: Compound concentration 100.0 nM
[3] = target: Sodium-dependent dopamine transporter (Homo sapiens) (UniProt Q01959); settings: Compound concentration 10.0 uM
Rattus norvegicus = organism: Rattus norvegicus; test: Testosterone Eurofins-Panlabs radioligand binding assay; set-up: ligand concentration 1.5 nM; settings: Compound concentration 10.0 uM
[4] = target: Glutamate receptor ionotropic, kainate (Rattus norvegicus) (UniProt P22756+Q01812+P42260+P42264+Q63273); test: Inhibition of Glutamate, Kainate at 10 µM in the Eurofins-Panlabs radioligand binding assay (Eurofins_assay_232700); settings: Compound concentration 10.0 uM
[5] = target: Neuropeptide Y receptor type 2 (Homo sapiens) (UniProt P49146); test: Inhibition of Neuropeptide Y Y2 at 10 µM in the Eurofins-Panlabs radioligand binding assay (Eurofins_assay_257110); settings: Compound concentration 10.0 uM
Sequence of Neuropeptide Y receptor type 2 (Homo sapiens) (P49146 whole entry): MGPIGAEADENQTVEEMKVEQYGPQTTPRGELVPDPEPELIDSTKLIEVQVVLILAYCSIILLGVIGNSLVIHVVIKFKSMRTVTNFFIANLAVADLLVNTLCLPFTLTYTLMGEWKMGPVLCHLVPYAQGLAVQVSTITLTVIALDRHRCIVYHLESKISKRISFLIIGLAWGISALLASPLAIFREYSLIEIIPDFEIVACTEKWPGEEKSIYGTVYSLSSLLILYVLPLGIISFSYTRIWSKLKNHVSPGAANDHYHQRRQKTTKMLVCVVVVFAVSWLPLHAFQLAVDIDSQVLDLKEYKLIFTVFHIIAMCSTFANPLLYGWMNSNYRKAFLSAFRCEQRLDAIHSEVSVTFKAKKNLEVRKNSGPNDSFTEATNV

[6] = target: Platelet-activating factor receptor (Homo sapiens) (UniProt P25105); test: Inhibition of Platelet Activating Factor (PAF) at 10 µM in the Eurofins-Panlabs radioligand binding assay (Eurofins_assay_265010); settings: Compound concentration 10.0 uM
[7] = target: Monoamine oxidase A (MAO-A) (Homo sapiens, UniProt P21397); test: Inhibition of Monoamine Oxidase MAO-A at compound concentration of 10.0 uM in the Eurofins-Panlabs enzyme assay (Eurofins_assay_140010); set-up: substrate with concentration 50 uM Kynuramine, incubation time 60 min, incubation temperature 37 C; settings: recombinant human MAO-A expressed in insect Hi5 cells, probe kynuramine, compound concentration 10 uM
Sequence of Monoamine oxidase A (MAO-A) (P21397 whole entry): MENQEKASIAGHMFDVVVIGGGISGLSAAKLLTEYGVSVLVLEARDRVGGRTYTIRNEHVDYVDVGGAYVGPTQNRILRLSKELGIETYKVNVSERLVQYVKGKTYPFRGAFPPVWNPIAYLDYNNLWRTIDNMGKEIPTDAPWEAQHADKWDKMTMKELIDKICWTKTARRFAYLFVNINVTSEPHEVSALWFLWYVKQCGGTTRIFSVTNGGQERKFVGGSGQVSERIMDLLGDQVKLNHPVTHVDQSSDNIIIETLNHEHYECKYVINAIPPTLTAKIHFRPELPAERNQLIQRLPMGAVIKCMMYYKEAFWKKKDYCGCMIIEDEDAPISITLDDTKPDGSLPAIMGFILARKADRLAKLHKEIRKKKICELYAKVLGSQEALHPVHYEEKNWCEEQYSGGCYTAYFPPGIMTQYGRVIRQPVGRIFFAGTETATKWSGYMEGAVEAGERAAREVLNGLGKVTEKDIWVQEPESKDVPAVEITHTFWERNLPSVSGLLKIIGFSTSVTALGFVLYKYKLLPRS

[8] = target: T1, Alpha-2C adrenergic receptor (Homo sapiens) (UniProt P18825); test: Adrenergic alpha2C Eurofins-Panlabs radioligand binding assay; set-up: ligand concentration 1 nM, non-specific ligand with concentration 10 µM WB-4101, incubation time 60 min, incubation temperature 25 °C; settings: Compound concentration 10.0 uM
T1 sequence (whole entry): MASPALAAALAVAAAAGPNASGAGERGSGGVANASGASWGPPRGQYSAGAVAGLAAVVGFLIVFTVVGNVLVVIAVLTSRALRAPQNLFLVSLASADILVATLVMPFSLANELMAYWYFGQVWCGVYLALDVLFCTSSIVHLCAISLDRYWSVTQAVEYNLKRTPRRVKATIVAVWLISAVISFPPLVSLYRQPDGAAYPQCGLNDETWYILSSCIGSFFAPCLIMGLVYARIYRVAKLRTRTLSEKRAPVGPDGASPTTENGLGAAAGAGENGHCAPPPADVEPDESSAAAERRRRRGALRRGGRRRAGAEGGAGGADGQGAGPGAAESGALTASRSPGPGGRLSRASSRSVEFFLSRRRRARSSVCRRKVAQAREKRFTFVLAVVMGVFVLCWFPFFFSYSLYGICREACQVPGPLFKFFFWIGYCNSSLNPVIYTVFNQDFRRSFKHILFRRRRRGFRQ

[9] = target: Melanocortin receptor 5 (Homo sapiens) (UniProt P33032); test: Inhibition of Melanocortin MC5 at 10 µM in the Eurofins-Panlabs radioligand binding assay (Eurofins_assay_251400); set-up: ligand concentration 0.035 nM; settings: Compound concentration 10.0 uM
[10] = target: Substance-P receptor (Homo sapiens) (UniProt P25103); test: Tachykinin NK1 Eurofins-Panlabs radioligand binding assay; settings: Compound concentration 10.0 uM
[11] = target: Monoamine oxidase B (MAO-B) (Homo sapiens, UniProt P27338); test: Inhibition of Monoamine Oxidase MAO-B at compound concentration of 10.0 uM in the Eurofins-Panlabs enzyme assay (Eurofins_assay_140120); set-up: substrate with concentration 50 uM Kynuramine, incubation time 60 min, incubation temperature 37 C; settings: recombinant human MAO-B expressed in insect Hi5 cells, probe kynuramine, compound concentration 10 uM
Sequence of Monoamine oxidase B (MAO-B) (P27338 whole entry): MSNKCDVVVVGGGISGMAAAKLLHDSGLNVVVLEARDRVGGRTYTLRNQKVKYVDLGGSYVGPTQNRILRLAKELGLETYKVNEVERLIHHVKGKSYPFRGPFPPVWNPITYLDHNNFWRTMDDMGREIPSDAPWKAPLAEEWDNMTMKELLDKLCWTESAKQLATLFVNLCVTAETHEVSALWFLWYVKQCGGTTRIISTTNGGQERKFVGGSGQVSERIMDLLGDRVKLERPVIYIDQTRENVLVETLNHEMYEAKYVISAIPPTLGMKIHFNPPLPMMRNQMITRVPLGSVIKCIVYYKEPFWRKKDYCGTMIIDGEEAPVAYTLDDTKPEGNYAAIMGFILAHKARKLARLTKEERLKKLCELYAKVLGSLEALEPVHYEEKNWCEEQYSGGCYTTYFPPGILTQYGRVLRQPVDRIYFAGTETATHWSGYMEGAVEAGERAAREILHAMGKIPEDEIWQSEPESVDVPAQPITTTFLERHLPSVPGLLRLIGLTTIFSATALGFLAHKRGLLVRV

[12] = target: MAP/microtubule affinity-regulating kinase 3 (Homo sapiens) (UniProt P27448); test: Protein Serine/Threonine Kinase, MARK3 Eurofins-Panlabs enzyme assay; settings: Compound concentration 10.0 uM
Sequence of MAP/microtubule affinity-regulating kinase 3 (Homo sapiens) (P27448 whole entry, looked up): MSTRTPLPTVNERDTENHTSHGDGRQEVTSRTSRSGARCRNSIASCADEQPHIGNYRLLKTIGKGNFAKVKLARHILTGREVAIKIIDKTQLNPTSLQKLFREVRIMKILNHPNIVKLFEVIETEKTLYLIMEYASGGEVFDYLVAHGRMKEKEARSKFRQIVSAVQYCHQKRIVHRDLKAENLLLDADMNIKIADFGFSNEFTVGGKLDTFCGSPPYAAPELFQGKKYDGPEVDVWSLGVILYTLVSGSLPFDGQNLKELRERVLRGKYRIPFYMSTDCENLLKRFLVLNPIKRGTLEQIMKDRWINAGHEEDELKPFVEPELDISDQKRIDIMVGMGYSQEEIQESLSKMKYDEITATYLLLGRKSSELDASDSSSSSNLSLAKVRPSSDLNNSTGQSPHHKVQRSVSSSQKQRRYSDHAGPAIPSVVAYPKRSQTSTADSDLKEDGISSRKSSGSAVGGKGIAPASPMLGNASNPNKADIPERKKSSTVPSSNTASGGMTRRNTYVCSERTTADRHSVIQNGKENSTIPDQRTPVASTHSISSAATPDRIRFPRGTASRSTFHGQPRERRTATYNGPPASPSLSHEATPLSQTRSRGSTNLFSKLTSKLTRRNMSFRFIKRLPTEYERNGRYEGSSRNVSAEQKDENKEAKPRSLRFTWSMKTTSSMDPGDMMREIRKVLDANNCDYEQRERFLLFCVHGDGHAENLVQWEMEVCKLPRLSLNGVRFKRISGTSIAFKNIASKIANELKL

[13] = target: Tyrosine 3-monooxygenase (Homo sapiens) (UniProt P07101); test: Tyrosine Hydroxylase Eurofins-Panlabs enzyme assay; set-up: substrate with concentration; settings: Rattus norvegicus; Compound concentration 10.0 uM
[14] = target: Peroxisome proliferator-activated receptor alpha (Homo sapiens) (UniProt Q07869); test: PPARalpha Eurofins-Panlabs radioligand binding assay; settings: Compound concentration 10.0 uM
[15] = target: Prostaglandin E2 receptor EP3 subtype (Homo sapiens) (UniProt P43115); test: Prostanoid EP3 Eurofins-Panlabs radioligand binding assay; set-up: ligand concentration 0.5 nM, non-specific ligand with concentration 10 µM Prostaglandin EŽ2 (PGE2), incubation time 60 min, incubation temperature 25 °C; settings: Compound concentration 10.0 uM
Sequence of Prostaglandin E2 receptor EP3 subtype (Homo sapiens) (P43115 whole entry): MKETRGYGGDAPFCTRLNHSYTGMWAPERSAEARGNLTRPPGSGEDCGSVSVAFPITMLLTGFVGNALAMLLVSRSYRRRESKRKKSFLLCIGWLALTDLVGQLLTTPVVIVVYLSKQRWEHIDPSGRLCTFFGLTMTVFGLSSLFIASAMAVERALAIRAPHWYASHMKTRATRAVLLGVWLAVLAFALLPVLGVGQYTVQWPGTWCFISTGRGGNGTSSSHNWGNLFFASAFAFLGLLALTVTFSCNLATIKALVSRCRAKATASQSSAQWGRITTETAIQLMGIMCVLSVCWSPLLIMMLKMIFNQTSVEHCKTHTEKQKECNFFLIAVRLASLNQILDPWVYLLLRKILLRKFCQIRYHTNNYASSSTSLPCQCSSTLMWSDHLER

[16] = target: Retinoic acid receptor RXR-alpha (Homo sapiens) (UniProt P19793); test: Retinoid X Receptor RXRalpha Eurofins-Panlabs radioligand binding assay; settings: Compound concentration 10.0 uM
Sequence of Retinoic acid receptor RXR-alpha (Homo sapiens) (P19793 whole entry): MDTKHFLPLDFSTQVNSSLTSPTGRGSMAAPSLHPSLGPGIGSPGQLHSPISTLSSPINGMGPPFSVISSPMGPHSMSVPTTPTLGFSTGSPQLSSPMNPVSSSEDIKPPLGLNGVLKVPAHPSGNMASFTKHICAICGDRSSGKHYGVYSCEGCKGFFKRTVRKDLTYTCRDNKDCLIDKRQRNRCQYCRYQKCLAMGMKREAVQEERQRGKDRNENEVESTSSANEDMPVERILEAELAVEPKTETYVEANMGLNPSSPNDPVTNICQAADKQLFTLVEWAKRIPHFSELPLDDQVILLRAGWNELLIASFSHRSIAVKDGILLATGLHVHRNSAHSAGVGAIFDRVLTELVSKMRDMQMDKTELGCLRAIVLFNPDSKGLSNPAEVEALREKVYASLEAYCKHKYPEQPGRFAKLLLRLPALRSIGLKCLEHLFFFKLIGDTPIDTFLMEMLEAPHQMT

[17] = target: Thyrotropin-releasing hormone receptor (Homo sapiens) (UniProt P34981); test: Thyrotropin Releasing Hormone (TRH) Eurofins-Panlabs radioligand binding assay; set-up: ligand concentration 3 nM; settings: Rattus norvegicus; Compound concentration 10.0 uM
[18] = target: Insulin receptor (Homo sapiens) (UniProt P06213); test: Protein Tyrosine Kinase, Insulin Receptor Eurofins-Panlabs enzyme assay; set-up: substrate with concentration 10 µg/mL Histone H1, incubation time 60 min, incubation temperature 25 °C; settings: Compound concentration 10.0 uM
[19] = target: cAMP and cAMP-inhibited cGMP 3',5'-cyclic phosphodiesterase 10A (Homo sapiens, UniProt Q9Y233); test: Cell assay
[20] = target: Adenosine receptor A2a (Homo sapiens) (UniProt P29274); settings: Compound concentration 10.0 uM
Sequence of Adenosine receptor A2a (Homo sapiens) (P29274 whole entry): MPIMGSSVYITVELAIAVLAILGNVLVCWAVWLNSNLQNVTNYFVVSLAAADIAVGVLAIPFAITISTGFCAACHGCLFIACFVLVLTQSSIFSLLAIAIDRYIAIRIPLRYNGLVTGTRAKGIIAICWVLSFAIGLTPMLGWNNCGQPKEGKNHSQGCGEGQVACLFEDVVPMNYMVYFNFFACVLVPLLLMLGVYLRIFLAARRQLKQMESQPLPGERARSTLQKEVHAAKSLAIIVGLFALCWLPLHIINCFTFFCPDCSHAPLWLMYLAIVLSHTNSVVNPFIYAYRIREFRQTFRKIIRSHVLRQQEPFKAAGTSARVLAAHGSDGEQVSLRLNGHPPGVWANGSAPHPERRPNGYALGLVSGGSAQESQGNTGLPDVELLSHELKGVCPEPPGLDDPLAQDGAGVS

[21] = target: Beta-1 adrenergic receptor (Homo sapiens) (UniProt P08588); settings: Compound concentration 10.0 uM
Sequence of Beta-1 adrenergic receptor (Homo sapiens) (P08588 whole entry, looked up): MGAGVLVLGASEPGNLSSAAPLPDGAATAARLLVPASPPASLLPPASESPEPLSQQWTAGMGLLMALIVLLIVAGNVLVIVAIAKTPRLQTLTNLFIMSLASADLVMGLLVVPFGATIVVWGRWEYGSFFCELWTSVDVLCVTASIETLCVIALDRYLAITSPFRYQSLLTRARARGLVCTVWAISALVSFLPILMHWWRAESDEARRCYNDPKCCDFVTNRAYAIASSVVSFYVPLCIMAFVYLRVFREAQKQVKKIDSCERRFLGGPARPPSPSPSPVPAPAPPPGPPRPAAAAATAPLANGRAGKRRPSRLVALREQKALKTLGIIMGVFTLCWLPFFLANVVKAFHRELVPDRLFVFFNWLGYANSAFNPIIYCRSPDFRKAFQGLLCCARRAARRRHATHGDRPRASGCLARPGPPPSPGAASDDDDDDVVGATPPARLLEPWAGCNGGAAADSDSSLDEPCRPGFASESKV

[22] = target: D(1A) dopamine receptor (Homo sapiens) (UniProt P21728); settings: Compound concentration 10.0 uM
[23] = target: Endothelin receptor type B (Homo sapiens) (UniProt P24530); settings: Compound concentration 10.0 uM
[24] = target: Muscarinic acetylcholine receptor M3 (Homo sapiens) (UniProt P20309); settings: Compound concentration 10.0 uM
[25] = target: Sodium-dependent serotonin transporter (Homo sapiens) (UniProt P31645); settings: Compound concentration 10.0 uM
[26] = target: T2, Alpha-2B adrenergic receptor (Homo sapiens) (UniProt P18089); settings: Compound concentration 10.0 uM
T2 sequence (whole entry): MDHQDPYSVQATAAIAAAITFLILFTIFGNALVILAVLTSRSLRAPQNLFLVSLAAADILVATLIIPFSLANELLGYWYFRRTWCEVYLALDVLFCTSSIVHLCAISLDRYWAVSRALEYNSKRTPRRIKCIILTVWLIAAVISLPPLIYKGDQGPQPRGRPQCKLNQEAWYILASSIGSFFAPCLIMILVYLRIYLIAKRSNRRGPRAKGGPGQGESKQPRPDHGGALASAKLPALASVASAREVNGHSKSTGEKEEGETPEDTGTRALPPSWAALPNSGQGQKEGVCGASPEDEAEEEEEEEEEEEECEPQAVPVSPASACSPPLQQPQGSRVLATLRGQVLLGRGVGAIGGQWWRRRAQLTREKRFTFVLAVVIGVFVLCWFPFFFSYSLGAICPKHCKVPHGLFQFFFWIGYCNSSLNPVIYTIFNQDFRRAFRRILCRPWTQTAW

[27] = target: Beta-3 adrenergic receptor (Homo sapiens) (UniProt P13945); settings: Compound concentration 10.0 uM
[28] = target: Cannabinoid receptor 2 (Homo sapiens) (UniProt P34972); settings: Compound concentration 10.0 uM
[29] = target: Gamma-aminobutyric acid type B receptor subunit 1 (Homo sapiens) (UniProt Q9UBS5); settings: Rattus norvegicus; Compound concentration 10.0 uM
Sequence of Gamma-aminobutyric acid type B receptor subunit 1 (Homo sapiens) (Q9UBS5 whole entry): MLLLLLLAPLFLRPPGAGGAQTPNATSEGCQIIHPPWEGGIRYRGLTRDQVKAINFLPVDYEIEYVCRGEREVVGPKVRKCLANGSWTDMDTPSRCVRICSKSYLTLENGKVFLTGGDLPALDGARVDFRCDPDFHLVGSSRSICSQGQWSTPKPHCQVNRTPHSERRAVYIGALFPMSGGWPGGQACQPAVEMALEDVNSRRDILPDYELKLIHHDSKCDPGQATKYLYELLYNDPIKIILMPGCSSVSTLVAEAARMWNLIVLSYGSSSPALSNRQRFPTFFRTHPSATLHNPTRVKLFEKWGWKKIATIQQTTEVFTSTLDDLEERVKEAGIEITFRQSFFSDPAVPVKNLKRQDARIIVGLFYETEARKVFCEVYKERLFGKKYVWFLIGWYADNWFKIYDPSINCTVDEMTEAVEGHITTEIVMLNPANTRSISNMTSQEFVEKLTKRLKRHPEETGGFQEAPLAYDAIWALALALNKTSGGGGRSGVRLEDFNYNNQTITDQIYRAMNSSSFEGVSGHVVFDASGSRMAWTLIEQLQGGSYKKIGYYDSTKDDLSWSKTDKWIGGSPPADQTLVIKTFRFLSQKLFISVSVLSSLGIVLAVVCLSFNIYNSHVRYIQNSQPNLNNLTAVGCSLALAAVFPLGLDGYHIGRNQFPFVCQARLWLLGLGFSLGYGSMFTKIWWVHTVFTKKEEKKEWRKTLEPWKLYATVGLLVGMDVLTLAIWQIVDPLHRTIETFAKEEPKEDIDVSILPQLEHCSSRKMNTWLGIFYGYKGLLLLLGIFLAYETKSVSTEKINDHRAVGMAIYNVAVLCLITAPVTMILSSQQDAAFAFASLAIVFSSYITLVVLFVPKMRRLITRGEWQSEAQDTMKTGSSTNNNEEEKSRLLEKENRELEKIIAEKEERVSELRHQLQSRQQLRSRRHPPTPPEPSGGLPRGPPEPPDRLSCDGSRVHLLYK

CC(C)CC(=O)N1CCc2nc(-c3ccc(Br)cc3)nc(N(C)Cc3ccccc3)c2C1 [THPP-1-NC]
inactive: residual activity [1] 100% | residual activity [2] 96% | inhibition [3] 15.3%

COCCOc1nc(-c2ccc(Cl)nc2)nc2c1CN(C(=O)c1ncn3ccccc13)CC2 [THPP-1]
inactive: inhibition (Rattus norvegicus) 7% | inhibition [4] 9% | inhibition [5] 1% | inhibition [6] -4% | inhibition [8] 3% | inhibition [9] 6% | inhibition [10] 8% | inhibition [12] 7% | inhibition [13] 4% | inhibition [14] 4% | inhibition [15] -1% | inhibition [16] -4% | inhibition [17] 7% | inhibition [18] -2% | inhibition [20] 17% | inhibition [21] -3% | inhibition [22] 6% | inhibition [23] 0% | inhibition [24] -6% | inhibition [25] 2% | inhibition [26] 1% | inhibition [27] 1% | inhibition [28] 28% | inhibition [29] -5%
active: IC50 [19] 49 nM
42% (not active): inhibition at 60 min, 10 µM [7]
32% (not active): inhibition at 60 min, 10 µM [11]
